Source: US20250228239A1, “MOLECULES HAVING PESTICIDAL UTILITY, AND INTERMEDIATES, COMPOSITIONS, AND PROCESSES, RELATED THERETO” (priority 2024, published 2025)
Like-named read-outs stand apart in the source and are kept apart here.

What was measured:
Type in all cases: in vivo
[1] = test system: Beet Armyworm (Spodoptera exigua, LAPHEG); assay: Bioassays on Beet Armyworm (BAW), 128-well diet tray assay; conditions: Spodoptera exigua
Method in brief: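 Test molecule was dissolved in 90:10 acetone-water and applied at 50 μg/cm^2 onto artificial diet in eight wells, then dried. Second instar larvae, one to five per well, were added, and trays were kept vented at 25° C. with a 14:10 photoperiod for five to seven days before mortality was recorded.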

[2] = test system: Green Peach Aphid (Myzus persicae, MYZUPE); assay: Bioassays on Green Peach Aphid (GPA), foliar spray on cabbage seedlings; conditions: 72 h
Description: Certain molecules disclosed in this document were tested against GPA using procedures described in the following example. In the reporting of the results, the “GPA & YFM Rating Table” was used (See Table Section).
Cabbage seedlings grown in 3-inch pots, with 2-3 small (3-5 cm) true leaves, were used as test substrate. The seedlings were infested with 20-50 GPA (wingless adult and nymph stages) one day prior to chemical application. Four pots with individual seedlings were used for each treatment. Test molecules (2 mg) were dissolved in 2 mL of acetone/methanol (1:1) solvent, forming stock solutions of 1000 ppm test molecule. The stock solutions were diluted 5× with 0.025% Tween 20 in water to obtain the solution at 200 ppm test molecule. A hand-held aspirator-type sprayer was used for spraying a solution to both sides of […] leaves until runoff. Reference plants (solvent check) were sprayed with the diluent only containing 20% by volume of acetone/methanol (1:1) solvent. Treated plants were held in a holding room for three days at approximately 25° C. and ambient relative humidity (RH) prior to grading. Evaluation was conducted by counting the number of live aphids per plant under a microscope. Percent control was measured using Abbott's correction formula (W. S. Abbott, “A Method of Computing the Effectiveness of an Insecticide” J. Econ. Entomol. 18 (1925), pp. 265-267) as follows. Corrected % Control=100*(X−Y)/X where X=No. of live aphids on solvent check plants and Y=No. of live aphids on treated plants. The results are indicated in the table entitled “Table ABC: Biological Results” (See Table Section).

[3] = test system: Cabbage Looper (Trichoplusia ni, TRIPNI); assay: Bioassays on Cabbage Looper (CL), 128-well diet tray assay; conditions: Trichoplusia ni
Method in brief: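 Diet tray, 2nd instar, 1–5 larvae/well; 50 μg/cm^2 compound surface-applied (acetone:water 90:10), dried; 8 wells/treatment; 25° C, 14:10 L:D, 5–7 d; % mortality, mean of 8 wells.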

[4] = test system: Yellow Fever Mosquito (Aedes aegypti, AEDSAE)
Method in brief: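 Mortality after 3 days at room temperature is the read-out, scored well by well and converted to a rating. Test molecules came from 4000 ppm stocks in DMSO, further diluted in 90:10 water/acetone, and were exposed to roughly 1-day-old larvae suspended in liver-powder water.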

[5] = Beet Armyworm, rating class, read-out: BAW
[6] = Green Peach Aphid, rating class, read-out: GPA
[7] = Cabbage Looper, rating class, read-out: CL
[8] = Yellow Fever Mosquito, rating class
[9] = Table ABC: Biological Results, species BAW, read-out: BAW
[10] = Table ABC: Biological Results, species GPA, read-out: GPA
[11] = Table ABC: Biological Results, species CL, read-out: CL
[12] = Table ABC: Biological Results, species YFM

Compound	pest or weed control at 50 µg/cm2 [1, 5]	pest or weed control at 200 µg/mL [2, 6]	pest or weed control at 50 µg/cm2 [3, 7]	YFM [4, 8]	pest or weed control at 50 µg/cm2 [1, 9]	pest or weed control at 200 µg/mL [2, 10]	pest or weed control at 50 µg/cm2 [3, 11]	YFM [4, 12]	other results
C[C@H]1CC[C@@H](C(=O)Nc2c(F)ccc(NC(=O)c3cc(NC(=O)[C@H]4[C@H](c5ccc(F)c(C(F)(F)F)c5)C4(Cl)Cl)ccc3Cl)c2F)O1 [F1612, (2S,5S)-N-(3-(2-Chloro-5-((1R,3R)-2,2-dichloro-3-(4-fluoro-3-(trifluoromethyl)phenyl)cyclopropane-1-carboxamido)benzamido)-2,6-difluorophenyl)-5-methyltetrahydrofuran-2-carboxamide]	50 to 100%	0 to 80%	50 to 100%	A (80–100)	–	–	–	–	–
Nc1c(F)ccc(NC(=O)c2cc(NC(=O)[C@H]3[C@H](c4ccc(Cl)c(C(F)(F)F)c4)C3(Cl)Cl)ccc2Cl)c1F (relative stereo) [F1079, trans-N-(3-Amino-2,4-difluorophenyl)-2-chloro-5-(2,2-dichloro-3-(4-chloro-3-(trifluoromethyl)phenyl)cyclopropane-1-carboxamido)benzamide]	–	–	–	–	50 to 100%	80 to 100%	50 to 100%	A (80–100)	–
CCCC(=O)Nc1c(F)ccc(NC(=O)c2cc(NC(=O)[C@H]3[C@H](c4ccc(Cl)c(Cl)c4)C3(Cl)Cl)ccc2Cl)c1F [F1473, N-(3-Butyramido-2,4-difluorophenyl)-2-chloro-5-((1R,3R)-2,2-dichloro-3-(3,4-dichlorophenyl)cyclopropane-1-carboxamido)benzamide]	50 to 100%	0 to 80%	50 to 100%	A (80–100)	–	–	–	–	–
O=C(CNC(=O)c1cc(NC(=O)[C@H]2[C@H](c3cc(Cl)cc(Cl)c3)C2(Cl)Cl)ccc1Cl)NCC(F)(F)F (relative stereo) [F2078, trans-2-Chloro-5-(2,2-dichloro-3-(3,5-dichlorophenyl)cyclopropane-1-carboxamido)-N-(2-oxo-2-(2,2,2-trifluoroethylamino)ethyl)benzamide]	–	–	–	–	–	–	–	–	pest or weed control at 50 µg/cm2 ([1]; Beet Armyworm, Table ABC / ABC-DP rating, read-out: BAW rating): 50 to 100%; pest or weed control at 200 µg/mL ([2]; Green Peach Aphid, Table ABC / ABC-DP rating, read-out: GPA rating): 80 to 100%; pest or weed control at 50 µg/cm2 ([3]; Cabbage Looper, Table ABC / ABC-DP rating, read-out: CL rating): 50 to 100%; YFM rating ([4]; Yellow Fever Mosquito, Table ABC / ABC-DP rating): A (80–100)
CCOC(C)C(=O)Nc1c(F)ccc(NC(=O)c2cc(NC(=O)[C@H]3[C@H](c4ccc(F)c(C(F)(F)F)c4)C3(Cl)Cl)ccc2Cl)c1F (stereo partly drawn) [F1364, 2-Chloro-5-((1R,3R)-2,2-dichloro-3-(4-fluoro-3-(trifluoromethyl)phenyl)cyclopropane-1-carboxamido)-N-(3-(2-ethoxypropanamido)-2,4-difluorophenyl)benzamide]	–	–	–	–	50 to 100%	0 to 80%	50 to 100%	A (80–100)	–
O=C(Nc1ccc(F)c(NC(=O)C(F)(F)Cl)c1F)c1cc(NC(=O)[C@H]2[C@H](c3ccc(Cl)c(Cl)c3)C2(Cl)Cl)ccc1Cl [F1248, 2-Chloro-N-(3-(2-chloro-2,2-difluoroacetamido)-2,4-difluorophenyl)-5-((1R,3R)-2,2-dichloro-3-(3,4-dichlorophenyl)cyclopropane-1-carboxamido)benzamide]	–	–	–	–	50 to 100%	80 to 100%	50 to 100%	A (80–100)	–
O=C(Nc1ccc(F)c(NC(=O)C(F)F)c1F)c1cc(NC(=O)[C@H]2[C@H](c3ccc(F)cc3)C2(Cl)Cl)ccc1Cl (relative stereo) [F1598, trans-2-Chloro-5-(2,2-dichloro-3-(4-fluorophenyl)cyclopropane-1-carboxamido)-N-(3-(2,2-difluoroacetamido)-2,4-difluorophenyl)benzamide]	50 to 100%	80 to 100%	50 to 100%	A (80–100)	–	–	–	–	–
